From PubChem BioAssay AID1259407 (Chemical Carcinogenesis Research Information System (CCRIS), 2018)
Calls of active or inactive are those of the source. How the calls were made is not given here.

Tested on: CCRIS mutagenicity, Ames/micronucleus/aberration tests
Test: CCRIS mutagenicity studies

Measured: mutagenic call

C1COCCO1
inactive: Test System: AMES SALMONELLA TYPHIMURIUM, Strain/Indicator: TA1535, Metabolic Activation: RAT LIVER S-9, PHENOBARBITAL AND BETA-NAPHTHOFLAVONE (30%), Method: PREINCUBATION inactive; negative | Test System: AMES SALMONELLA TYPHIMURIUM, Strain/Indicator: TA1535, Metabolic Activation: RAT LIVER S-9, PHENOBARBITAL AND BETA-NAPHTHOFLAVONE, Method: GAS EXPOSURE inactive; negative | Test System: AMES SALMONELLA TYPHIMURIUM, Strain/Indicator: TA1537, Metabolic Activation: HAMSTER LIVER S-9, PHENOBARBITAL AND BETA-NAPHTHOFLAVONE (10%), Method: PREINCUBATION inactive; negative | Test System: AMES SALMONELLA TYPHIMURIUM, Strain/Indicator: TA1537, Metabolic Activation: HAMSTER LIVER S-9, PHENOBARBITAL AND BETA-NAPHTHOFLAVONE (30%), Method: PREINCUBATION inactive; negative | Test System: AMES SALMONELLA TYPHIMURIUM, Strain/Indicator: TA1537, Metabolic Activation: NONE, Method: GAS EXPOSURE inactive; negative | Test System: AMES SALMONELLA TYPHIMURIUM, Strain/Indicator: TA1537, Metabolic Activation: NONE, Method: PREINCUBATION inactive; negative | Test System: AMES SALMONELLA TYPHIMURIUM, Strain/Indicator: TA1537, Metabolic Activation: NONE, Method: STANDARD PLATE inactive; negative | Test System: AMES SALMONELLA TYPHIMURIUM, Strain/Indicator: TA1537, Metabolic Activation: RAT LIVER S-9, PHENOBARBITAL AND 5,6-BENZOFLAVONE, Method: PREINCUBATION inactive; negative | Test System: AMES SALMONELLA TYPHIMURIUM, Strain/Indicator: TA1537, Metabolic Activation: RAT LIVER S-9, PHENOBARBITAL AND 5,6-BENZOFLAVONE, Method: STANDARD PLATE inactive; negative | Test System: AMES SALMONELLA TYPHIMURIUM, Strain/Indicator: TA1537, Metabolic Activation: RAT LIVER S-9, PHENOBARBITAL AND BETA-NAPHTHOFLAVONE (10%), Method: PREINCUBATION inactive; negative | Test System: AMES SALMONELLA TYPHIMURIUM, Strain/Indicator: TA1537, Metabolic Activation: RAT LIVER S-9, PHENOBARBITAL AND BETA-NAPHTHOFLAVONE (30%), Method: PREINCUBATION inactive; negative | Test System: AMES SALMONELLA TYPHIMURIUM, Strain/Indicator: TA1537, Metabolic Activation: RAT LIVER S-9, PHENOBARBITAL AND BETA-NAPHTHOFLAVONE, Method: GAS EXPOSURE inactive; negative | Test System: E.COLI, Strain/Indicator: WP2 (PKM101), Metabolic Activation: NONE, Method: PREINCUBATION inactive; negative | Test System: E.COLI, Strain/Indicator: WP2 (PKM101), Metabolic Activation: NONE, Method: STANDARD PLATE inactive; negative | Test System: E.COLI, Strain/Indicator: WP2 (PKM101), Metabolic Activation: RAT LIVER S-9, PHENOBARBITAL AND 5,6-BENZOFLAVONE, Method: PREINCUBATION inactive; negative | Test System: E.COLI, Strain/Indicator: WP2 (PKM101), Metabolic Activation: RAT LIVER S-9, PHENOBARBITAL AND 5,6-BENZOFLAVONE, Method: STANDARD PLATE inactive; negative | Test System: E.COLI, Strain/Indicator: WP2 UVRA (PKM101), Metabolic Activation: NONE, Method: PREINCUBATION inactive; negative | Test System: E.COLI, Strain/Indicator: WP2 UVRA (PKM101), Metabolic Activation: NONE, Method: STANDARD PLATE inactive; negative | Test System: E.COLI, Strain/Indicator: WP2 UVRA (PKM101), Metabolic Activation: RAT LIVER S-9, PHENOBARBITAL AND 5,6-BENZOFLAVONE, Method: STANDARD PLATE inactive; negative | Test System: E.COLI, Strain/Indicator: WP2 UVRA(PKM101), Metabolic Activation: RAT LIVER S-9, PHENOBARBITAL AND 5,6-BENZOFLAVONE, Method: PREINCUBATION inactive; negative | Test System: E.COLI, Strain/Indicator: WP2UVRA/PKM101, Metabolic Activation: NONE, Method: GAS EXPOSURE inactive; negative | Test System: E.COLI, Strain/Indicator: WP2UVRA/PKM101, Metabolic Activation: RAT LIVER S-9, PHENOBARBITAL AND BETA-NAPHTHOFLAVONE, Method: GAS EXPOSURE inactive; negative | Test System: E.COLI, Strain/Indicator: WP2UVRA, Metabolic Activation: HAMSTER LIVER S-9, PHENOBARBITAL AND BETA-NAPHTHOFLAVONE (10%), Method: PREINCUBATION inactive; negative | Test System: E.COLI, Strain/Indicator: WP2UVRA, Metabolic Activation: HAMSTER LIVER S-9, PHENOBARBITAL AND BETA-NAPHTHOFLAVONE (30%), Method: PREINCUBATION inactive; negative | Test System: E.COLI, Strain/Indicator: WP2UVRA, Metabolic Activation: NONE, Method: GAS EXPOSURE inactive; negative | Test System: E.COLI, Strain/Indicator: WP2UVRA, Metabolic Activation: NONE, Method: PREINCUBATION inactive; negative | Test System: E.COLI, Strain/Indicator: WP2UVRA, Metabolic Activation: RAT LIVER S-9, PHENOBARBITAL AND BETA-NAPHTHOFLAVONE (10%), Method: PREINCUBATION inactive; negative | Test System: E.COLI, Strain/Indicator: WP2UVRA, Metabolic Activation: RAT LIVER S-9, PHENOBARBITAL AND BETA-NAPHTHOFLAVONE (30%), Method: PREINCUBATION inactive; negative | Test System: E.COLI, Strain/Indicator: WP2UVRA, Metabolic Activation: RAT LIVER S-9, PHENOBARBITAL AND BETA-NAPHTHOFLAVONE, Method: GAS EXPOSURE inactive; negative | Test System: MOUSE LYMPHOMA, Strain/Indicator: L5178Y (TK+/TK-), Metabolic Activation: NONE, Method: MICROTITER inactive; negative | Test System: MOUSE LYMPHOMA, Strain/Indicator: L5178Y (TK+/TK-), Metabolic Activation: NONE, Method: SUSPENSION/PLATE inactive; negative | Test System: MOUSE LYMPHOMA, Strain/Indicator: L5178Y (TK+/TK-), Metabolic Activation: RAT LIVER S-9, PHENOBARBITAL AND 5,6-BENZOFLAVONE (2 OR 5%), Method: MICROTITER inactive; negative | Test System: MOUSE LYMPHOMA, Strain/Indicator: L5178Y (TK+/TK-), Metabolic Activation: RAT, LIVER, S-9, AROCLOR 1254, Method: SUSPENSION/PLATE inactive; negative
